The record followed here is ChEMBL document CHEMBL1909046, “DrugMatrix in vitro pharmacology data”.

One series addresses Mu-type opioid receptor (Homo sapiens, UniProt P35372). As to the kind of experiment: DRUGMATRIX: Opiate mu (OP3, MOP) radioligand binding (ligand: [3H] Diprenorphine). Format: cell membranes, CHO-K1, Membrane. Particulars: cho-k1; Not Active = under 50% inhibition at 10 µM.
Series [1] addresses Delta-type opioid receptor (Homo sapiens, UniProt P41143). Format: cell membranes, HEK293, Membrane. Conditions: hek293.
Another series has as its target Insulin receptor (Rattus norvegicus, UniProt P15127). The class given is cell membranes, Wistar, Liver, Membrane. Also: in other assays of this panel Not Active means under 50% inhibition at 10 µM.
The target in a further series is T1, Leukotriene C4 synthase (Cavia porcellus, UniProt A6XA80).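 Also: enzyme inhibition assay of leukotriene C4 synthase, using LTA4 as the substrate; in other assays of this panel Not Active means under 50% inhibition at 10 µM.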
T1 sequence (A6XA80 whole entry): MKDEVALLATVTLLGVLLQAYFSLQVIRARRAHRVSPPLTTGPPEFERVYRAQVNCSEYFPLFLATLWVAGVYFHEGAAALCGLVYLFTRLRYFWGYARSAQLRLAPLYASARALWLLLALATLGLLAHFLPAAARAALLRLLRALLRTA
Format: tissue-based, Lung.

For series [2], the target named is T2, Angiotensin-converting enzyme (Oryctolagus cuniculus, UniProt P12822).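 Also: enzymatic inhibition of angiotensin-converting enzyme measured with FAPGG as the substrate; in other assays of this panel Not Active means under 50% inhibition at 10 µM.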
T2 sequence (P12822 whole entry): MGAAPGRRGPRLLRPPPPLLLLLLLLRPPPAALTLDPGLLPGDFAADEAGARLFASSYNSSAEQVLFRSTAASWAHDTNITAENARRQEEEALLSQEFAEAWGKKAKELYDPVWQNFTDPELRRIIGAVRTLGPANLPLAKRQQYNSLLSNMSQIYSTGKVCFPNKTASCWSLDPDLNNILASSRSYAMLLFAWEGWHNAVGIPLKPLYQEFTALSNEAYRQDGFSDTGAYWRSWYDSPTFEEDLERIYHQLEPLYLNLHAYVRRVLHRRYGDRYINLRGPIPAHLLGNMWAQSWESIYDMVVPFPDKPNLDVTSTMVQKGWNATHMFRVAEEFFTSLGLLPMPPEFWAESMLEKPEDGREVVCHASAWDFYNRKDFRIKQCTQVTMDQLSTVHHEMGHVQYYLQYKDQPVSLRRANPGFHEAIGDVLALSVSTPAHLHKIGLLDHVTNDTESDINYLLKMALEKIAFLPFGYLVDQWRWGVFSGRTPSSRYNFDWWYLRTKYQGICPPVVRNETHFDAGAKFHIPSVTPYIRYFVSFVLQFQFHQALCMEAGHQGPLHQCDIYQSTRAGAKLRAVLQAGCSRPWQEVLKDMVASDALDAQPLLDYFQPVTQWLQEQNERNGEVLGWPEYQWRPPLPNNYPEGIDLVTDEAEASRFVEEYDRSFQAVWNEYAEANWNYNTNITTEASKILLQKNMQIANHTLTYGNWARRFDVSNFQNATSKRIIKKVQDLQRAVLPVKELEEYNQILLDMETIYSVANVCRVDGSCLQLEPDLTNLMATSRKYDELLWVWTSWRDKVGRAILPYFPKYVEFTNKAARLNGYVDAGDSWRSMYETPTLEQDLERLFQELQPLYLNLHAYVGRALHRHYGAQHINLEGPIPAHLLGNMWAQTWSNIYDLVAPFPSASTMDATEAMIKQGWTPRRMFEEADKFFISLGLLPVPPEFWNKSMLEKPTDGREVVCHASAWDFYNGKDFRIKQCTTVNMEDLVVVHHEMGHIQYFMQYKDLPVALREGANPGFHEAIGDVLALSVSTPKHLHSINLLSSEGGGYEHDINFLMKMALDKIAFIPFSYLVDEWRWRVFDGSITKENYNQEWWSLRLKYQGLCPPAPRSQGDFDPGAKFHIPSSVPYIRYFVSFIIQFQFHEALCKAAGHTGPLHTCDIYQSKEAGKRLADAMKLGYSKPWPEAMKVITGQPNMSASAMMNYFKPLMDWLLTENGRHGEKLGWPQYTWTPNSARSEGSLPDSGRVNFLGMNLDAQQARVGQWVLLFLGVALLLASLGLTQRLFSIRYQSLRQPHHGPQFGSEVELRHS
The class given is tissue-based, Lung.

Series [3] addresses Sigma non-opioid intracellular receptor 1 (Homo sapiens, UniProt Q99720). As to the kind of experiment: DRUGMATRIX: Sigma1 radioligand binding (ligand: [3H] Haloperidol). Conditions: Not Active = under 50% inhibition at 10 µM; for Ki: read-out: Ki. The class given is cell membranes, Jurkat, Membrane.
The next series has as its target T3, Cytochrome P450 2A6 (Homo sapiens, UniProt P11509). Also: in other assays of this panel Not Active means under 50% inhibition at 10 µM.
T3 sequence (P11509 whole entry): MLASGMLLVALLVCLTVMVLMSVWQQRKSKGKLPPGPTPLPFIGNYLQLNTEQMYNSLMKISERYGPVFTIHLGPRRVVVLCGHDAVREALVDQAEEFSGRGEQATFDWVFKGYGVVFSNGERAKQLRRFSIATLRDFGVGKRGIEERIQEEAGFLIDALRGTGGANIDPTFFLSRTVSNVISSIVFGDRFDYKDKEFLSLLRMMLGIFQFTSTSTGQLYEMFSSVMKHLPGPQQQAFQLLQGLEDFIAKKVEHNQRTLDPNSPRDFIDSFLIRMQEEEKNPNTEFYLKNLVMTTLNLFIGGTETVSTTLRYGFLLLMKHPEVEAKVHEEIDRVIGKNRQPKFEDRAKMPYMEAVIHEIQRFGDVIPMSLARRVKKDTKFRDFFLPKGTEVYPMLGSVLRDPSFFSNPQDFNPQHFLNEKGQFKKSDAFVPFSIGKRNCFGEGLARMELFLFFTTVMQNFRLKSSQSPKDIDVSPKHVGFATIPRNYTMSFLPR
Conditions: bti-tn-5b1-4.

SMILES strings stand for the structures.

One may read the IC50 as the concentration that inhibits the measured activity by half. Usually Ki stands for the equilibrium dissociation constant of an inhibitor or competing ligand from its target.

Chain of Delta-type opioid receptor (P41143 whole entry): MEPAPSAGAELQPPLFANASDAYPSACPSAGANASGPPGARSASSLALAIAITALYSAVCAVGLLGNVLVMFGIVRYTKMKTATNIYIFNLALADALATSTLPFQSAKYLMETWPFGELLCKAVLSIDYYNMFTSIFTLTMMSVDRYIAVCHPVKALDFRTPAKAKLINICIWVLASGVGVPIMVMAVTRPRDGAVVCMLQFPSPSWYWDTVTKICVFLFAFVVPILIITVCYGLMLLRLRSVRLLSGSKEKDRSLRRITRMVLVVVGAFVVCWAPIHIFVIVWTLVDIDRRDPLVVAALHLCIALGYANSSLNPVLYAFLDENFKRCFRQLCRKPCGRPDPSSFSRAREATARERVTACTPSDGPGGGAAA
Chain of Insulin receptor (P15127 27-759 limits assumed): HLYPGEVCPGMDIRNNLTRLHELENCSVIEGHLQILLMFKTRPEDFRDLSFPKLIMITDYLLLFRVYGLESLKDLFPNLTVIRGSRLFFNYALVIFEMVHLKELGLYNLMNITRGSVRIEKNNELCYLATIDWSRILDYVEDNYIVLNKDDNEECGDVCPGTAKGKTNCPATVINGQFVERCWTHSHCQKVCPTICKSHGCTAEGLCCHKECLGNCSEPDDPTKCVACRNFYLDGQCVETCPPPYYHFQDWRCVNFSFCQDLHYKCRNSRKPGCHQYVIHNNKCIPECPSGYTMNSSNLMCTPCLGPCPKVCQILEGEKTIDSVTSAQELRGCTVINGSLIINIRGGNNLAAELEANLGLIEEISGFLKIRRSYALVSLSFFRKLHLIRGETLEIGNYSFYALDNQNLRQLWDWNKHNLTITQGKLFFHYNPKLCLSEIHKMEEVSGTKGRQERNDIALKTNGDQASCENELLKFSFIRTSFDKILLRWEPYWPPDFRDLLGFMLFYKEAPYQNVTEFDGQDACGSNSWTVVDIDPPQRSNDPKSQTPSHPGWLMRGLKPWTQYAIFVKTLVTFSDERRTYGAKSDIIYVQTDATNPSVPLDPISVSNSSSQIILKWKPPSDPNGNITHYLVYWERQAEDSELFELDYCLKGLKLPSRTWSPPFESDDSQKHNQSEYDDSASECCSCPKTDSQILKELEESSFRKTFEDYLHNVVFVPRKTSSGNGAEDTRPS
Chain of Insulin receptor (P15127 764-1383 limits assumed): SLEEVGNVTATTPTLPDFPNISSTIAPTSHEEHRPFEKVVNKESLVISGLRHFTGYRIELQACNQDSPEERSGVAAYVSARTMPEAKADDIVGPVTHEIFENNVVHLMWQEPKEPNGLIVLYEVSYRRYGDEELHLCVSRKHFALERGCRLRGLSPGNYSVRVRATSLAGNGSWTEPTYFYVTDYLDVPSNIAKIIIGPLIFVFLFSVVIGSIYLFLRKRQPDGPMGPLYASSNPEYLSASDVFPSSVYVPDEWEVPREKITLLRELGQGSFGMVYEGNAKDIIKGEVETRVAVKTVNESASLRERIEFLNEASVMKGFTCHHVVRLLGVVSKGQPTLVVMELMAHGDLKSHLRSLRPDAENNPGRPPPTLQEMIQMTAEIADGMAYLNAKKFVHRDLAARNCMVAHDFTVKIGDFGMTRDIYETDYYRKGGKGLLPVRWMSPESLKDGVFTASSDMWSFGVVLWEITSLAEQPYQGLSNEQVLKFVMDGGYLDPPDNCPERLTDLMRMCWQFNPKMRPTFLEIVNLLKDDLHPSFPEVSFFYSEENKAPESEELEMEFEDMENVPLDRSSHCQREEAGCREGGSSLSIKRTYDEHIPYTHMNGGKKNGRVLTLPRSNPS
Chain of Mu-type opioid receptor (P35372 whole entry): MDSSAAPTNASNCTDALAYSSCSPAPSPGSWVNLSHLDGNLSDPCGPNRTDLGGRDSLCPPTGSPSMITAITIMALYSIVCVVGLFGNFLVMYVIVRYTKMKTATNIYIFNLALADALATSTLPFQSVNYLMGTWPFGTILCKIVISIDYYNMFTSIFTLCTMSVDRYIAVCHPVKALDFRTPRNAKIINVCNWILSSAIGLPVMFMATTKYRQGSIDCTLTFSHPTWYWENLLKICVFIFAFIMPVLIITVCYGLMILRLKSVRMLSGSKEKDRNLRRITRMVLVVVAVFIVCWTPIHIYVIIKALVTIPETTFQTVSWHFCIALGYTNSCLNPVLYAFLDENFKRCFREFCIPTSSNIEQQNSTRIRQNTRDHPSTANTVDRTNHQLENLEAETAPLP
Chain of Sigma non-opioid intracellular receptor 1 (Q99720 whole entry): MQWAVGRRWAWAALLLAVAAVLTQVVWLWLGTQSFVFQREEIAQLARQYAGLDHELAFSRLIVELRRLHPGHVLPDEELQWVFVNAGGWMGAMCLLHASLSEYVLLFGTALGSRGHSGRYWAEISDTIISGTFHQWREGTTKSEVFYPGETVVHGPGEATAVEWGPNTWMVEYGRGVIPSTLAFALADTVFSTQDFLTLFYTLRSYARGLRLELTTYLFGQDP

On to `CC(C)[C@H]1CC[C@H](C(=O)N[C@H](Cc2ccccc2)C(=O)O)CC1` [NATEGLINIDE], for which the IC50 entry (on Mu-type opioid receptor; in series [1]; at Insulin receptor; against Leukotriene C4 synthase; in series [2]; in series [3] (jurkat)) was “Not Active” each time. In addition, on Cytochrome P450 2A6, the half-maximal inhibitory concentration (IC50) result was “Not Active”. Also, the inhibition constant Ki result at Cytochrome P450 2A6 was “Not Active”.
For the compound `CCN[C@@H]1C[C@H](N)[C@@H](O[C@H]2OC(CN)=CC[C@H]2N)[C@H](O)[C@H]1O[C@H]1OC[C@](C)(O)[C@H](NC)[C@H]1O` [NETILMICIN], the half-inhibitory concentration (IC50) entry (at Mu-type opioid receptor; in series [1]; at Insulin receptor; against Leukotriene C4 synthase; in series [2]; in series [3] (jurkat)) was “Not Active” each time. Besides, at Cytochrome P450 2A6, the IC50 result is “Not Active”. Besides, on Cytochrome P450 2A6, the inhibition constant Ki result was “Not Active”.
As for `COC(=O)C1=C(C)NC(C)=C(C(=O)OCC(C)C)C1c1ccccc1[N+](=O)[O-]` (configuration not stated) [NISOLDIPINE], the IC50 entry (at Mu-type opioid receptor; in series [1]; on Insulin receptor; against Leukotriene C4 synthase; in series [2]; in series [3] (jurkat)) was “Not Active” in each case. Moreover, the IC50 entry at Cytochrome P450 2A6 is recorded as “Not Active”. In addition, the inhibitory constant (Ki) result on Cytochrome P450 2A6 is on record as “Not Active”.
Take `CCOC(=O)C1=C(C)NC(C)=C(C(=O)OC)C1c1cccc([N+](=O)[O-])c1` (configuration not stated) [NITRENDIPINE]: the IC50 result (on Mu-type opioid receptor; in series [1]; against Insulin receptor; against Leukotriene C4 synthase; in series [2]; in series [3] (jurkat)) was “Not Active” in each case. Further, the concentration for half-maximal inhibition (IC50) result against Cytochrome P450 2A6 was “Not Active”. Besides, on Cytochrome P450 2A6, the Ki result is “Not Active”.
In the case of `C#C[C@]1(OC(C)=O)CC[C@H]2[C@@H]3CCC4=CC(=O)CC[C@@H]4[C@H]3CC[C@@]21C` [NORETHINDRONE ACETATE], the IC50 entry (on Mu-type opioid receptor; in series [1]; against Insulin receptor; against Leukotriene C4 synthase; in series [2]; in series [3] (jurkat)) was “Not Active” throughout. Moreover, the IC50 result against Cytochrome P450 2A6 is “Not Active”. Moreover, on Cytochrome P450 2A6, the inhibitory constant (Ki) result was “Not Active”.
Regarding `COc1ccc2[nH]c([S+]([O-])Cc3ncc(C)c(OC)c3C)nc2c1` (configuration not stated) [OMEPRAZOLE], the IC50 result (on Mu-type opioid receptor; in series [1]; against Insulin receptor; on Leukotriene C4 synthase; in series [2]; in series [3] (jurkat)) was “Not Active” in each case. On Cytochrome P450 2A6, the IC50 entry is listed as “Not Active”. Further, the inhibition constant Ki result on Cytochrome P450 2A6 is “Not Active”.
`Cc1nccn1CC1CCc2c(c3ccccc3n2C)C1=O` (configuration not stated) [ONDANSETRON]: the half-maximal inhibitory concentration (IC50) entry (at Mu-type opioid receptor; in series [1]; on Insulin receptor; against Leukotriene C4 synthase; in series [2]; in series [3] (jurkat)) was “Not Active” throughout. Besides, the concentration for half-maximal inhibition (IC50) result against Cytochrome P450 2A6 is listed as “Not Active”. The inhibition constant Ki result at Cytochrome P450 2A6 is “Not Active”.
Take `CCCCOc1ccc(OCCCN2CCOCC2)cc1` [PRAMOXINE]: the IC50 result on Mu-type opioid receptor is “Not Active”; in series [1] it was “Not Active”; at Insulin receptor, “Not Active”; at Leukotriene C4 synthase, “Not Active”; in series [2] it was “Not Active”; in series [3] (read-out: IC50), 121 nM. Besides, on Cytochrome P450 2A6, the half-inhibitory concentration (IC50) result is given as “Not Active”. In addition, the inhibition constant (Ki) in series [3] is 51 nM; at Cytochrome P450 2A6, “Not Active”.
Regarding `CCN(CC)CCOC(=O)c1ccc(N)cc1` [PROCAINE], the concentration for half-maximal inhibition (IC50) result (on Mu-type opioid receptor; in series [1]; on Insulin receptor; at Leukotriene C4 synthase; in series [2]; in series [3] (jurkat)) was “Not Active” throughout. Also, the IC50 entry against Cytochrome P450 2A6 is recorded as “Not Active”. In addition, the inhibition constant Ki result on Cytochrome P450 2A6 is on record as “Not Active”.
Take `CCCN(CCC)C(=O)C(CCC(=O)O)NC(=O)c1ccccc1` (configuration not stated) [PROGLUMIDE]: the IC50 result (at Mu-type opioid receptor; in series [1]; against Insulin receptor; at Leukotriene C4 synthase; in series [2]; in series [3] (jurkat)) was “Not Active” each time. In addition, the IC50 entry against Cytochrome P450 2A6 is given as “Not Active”. Moreover, on Cytochrome P450 2A6, the inhibition constant (Ki) result is “Not Active”.
For `NC(=O)c1cnccn1` [PYRAZINAMIDE], the IC50 entry (on Mu-type opioid receptor; in series [1]; against Insulin receptor; at Leukotriene C4 synthase; in series [2]; in series [3] (jurkat)) was “Not Active” in each case. Further, the concentration for half-maximal inhibition (IC50) entry against Cytochrome P450 2A6 was “Not Active”. The inhibition constant Ki entry at Cytochrome P450 2A6 is listed as “Not Active”.
In the case of `OC(CCN1CCCCC1)(c1ccccc1)C1CCCCC1` (configuration not stated) [TRIHEXYPHENIDYL], the IC50 result on Mu-type opioid receptor is “Not Active”; in series [1] it was “Not Active”; against Insulin receptor, “Not Active”; against Leukotriene C4 synthase, “Not Active”; in series [2], “Not Active”; in series [3] (read-out: IC50), 108 nM. On Cytochrome P450 2A6, the IC50 result is reported as “Not Active”. The inhibitory constant (Ki) was 45 nM in series [3] and “Not Active” at Cytochrome P450 2A6.
As to `Cc1cc2cc3c(C)cc(=O)oc3c(C)c2o1` [TRIOXSALEN], the IC50 entry (at Mu-type opioid receptor; in series [1]; at Insulin receptor; against Leukotriene C4 synthase; in series [2]; in series [3] (jurkat)) was “Not Active” throughout. The IC50 result on Cytochrome P450 2A6 is “Not Active”. Further, the inhibitory constant (Ki) entry at Cytochrome P450 2A6 is given as “Not Active”.
`CCCC(CCC)C(=O)O` [VALPROIC ACID]: the IC50 entry (on Mu-type opioid receptor; in series [1]; on Insulin receptor; on Leukotriene C4 synthase; in series [2]; in series [3] (jurkat)) was “Not Active” each time. Moreover, the half-maximal inhibitory concentration (IC50) entry against Cytochrome P450 2A6 was “Not Active”. In addition, the Ki result at Cytochrome P450 2A6 is “Not Active”.
Turning to `CCC1=C[C@@H]2CN(C1)Cc1c([nH]c3ccccc13)[C@@](C(=O)OC)(c1cc3c(cc1OC)N(C)[C@H]1[C@@](O)(C(=O)OC)[C@H](OC(C)=O)[C@]4(CC)C=CCN5CC[C@]31[C@@H]54)C2` [VINORELBINE], the concentration for half-maximal inhibition (IC50) result (on Mu-type opioid receptor; in series [1]; on Insulin receptor; against Leukotriene C4 synthase; in series [2]; in series [3] (jurkat)) was “Not Active” each time. Besides, at Cytochrome P450 2A6, the IC50 entry was “Not Active”. The Ki entry at Cytochrome P450 2A6 is given as “Not Active”.
